Assay results: patent publication EP4603105A1, “PHARMACEUTICAL COMPOSITION CONTAINING CYCLIC COMPOUND HAVING SELECTIVE KRAS INHIBITORY EFFECT AGAINST HRAS AND NRAS” (CHUGAI SEIYAKU KABUSHIKI KAISHA, priority 2022, dated 2024)
Like-named read-outs stand apart in the source and are kept apart here.

Key:
[1] = biological target: HRAS wild-type protein (Homo sapiens, UniProt P01112); experiment: Binding to HRAS by surface plasmon resonance (SPR), KD and KD ratio to KRAS
Summary of the method: (§1)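 GDP-bound biotin-Avi RAS captured at ~100–300 RU, 30°C, pH 7.4 HBS containing 10 µM GDP, 10 mM MgCl2, 1 mM DTT, 0.01% Tween 20 and 4% DMSO. KD by 1:1 fitting.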

[2] = biological target: GDP-bound NRAS wild-type protein (Homo sapiens, UniProt P01111); experiment: Binding to NRAS by surface plasmon resonance (SPR), KD and KD ratio to KRAS
Summary of the method: as §1

[3] = biological target: GDP-bound KRAS wild-type protein (Homo sapiens, UniProt P01116); experiment: Binding to KRAS by surface plasmon resonance (SPR), dissociation constant KD
Summary of the method: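 Biotinylated GDP-bound RAS was captured at about 100–300 RU. Running buffer: HBS pH 7.4, 10 mM MgCl2, 10 µM GDP, 1 mM DTT, 0.01% Tween 20, 4% DMSO.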

[4] = tested on: human lung cancer strain NCI-H441; experiment: NCI-H441 cell proliferation inhibitory activity (CellTiter-Glo, 4 days); assay type: cell-based; settings: read-out: NCl-H441 IC50
Summary of the method: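 Readout: […] after the ATP-based reagent. Compound: serial dilutions in dimethyl sulfoxide.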

[5] = ratio of KD for HRAS wild-type protein to KD for KRAS
[6] = ratio of KD for GDP-bound NRAS wild-type protein to KD for KRAS
[7] = ratio of KD with respect to HRAS wild-type protein to KD with respect to KRAS
[8] = ratio of KD with respect to GDP-bound NRAS wild-type protein to KD with respect to KRAS
[9] = Single Cycle Kinetics, 1:1 binding model
[10] = 50% proliferation inhibitory concentration, four days

Sequence of GDP-bound KRAS wild-type protein (P01116 1-188 isoform P01116-2): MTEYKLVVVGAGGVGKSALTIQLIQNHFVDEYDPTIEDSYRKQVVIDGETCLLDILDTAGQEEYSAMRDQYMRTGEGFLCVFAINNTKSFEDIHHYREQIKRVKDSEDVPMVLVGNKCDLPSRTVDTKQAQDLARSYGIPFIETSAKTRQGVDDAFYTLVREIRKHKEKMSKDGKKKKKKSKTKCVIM
Sequence of GDP-bound NRAS wild-type protein (P01111 whole entry): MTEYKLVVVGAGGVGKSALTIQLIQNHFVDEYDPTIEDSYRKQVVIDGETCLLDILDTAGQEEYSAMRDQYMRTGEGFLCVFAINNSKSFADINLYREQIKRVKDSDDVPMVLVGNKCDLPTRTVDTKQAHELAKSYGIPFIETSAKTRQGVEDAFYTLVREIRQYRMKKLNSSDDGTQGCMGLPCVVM
Sequence of HRAS wild-type protein (P01112 whole entry): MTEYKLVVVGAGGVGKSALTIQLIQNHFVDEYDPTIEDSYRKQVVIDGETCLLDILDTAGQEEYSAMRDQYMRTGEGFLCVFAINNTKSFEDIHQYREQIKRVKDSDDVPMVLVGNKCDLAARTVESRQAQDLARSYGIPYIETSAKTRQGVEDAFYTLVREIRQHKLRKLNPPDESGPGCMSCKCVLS

Row | SMILES | Kd ([3]; 1:1 binding model) [nM] | IC50 ([4]; NCI-H441 cells, 4 days) [nM] | Kd ([3]; Single Cycle Kinetics) [nM] | Kd [3, 9] [nM] | IC50 [4, 10] [nM] | HRAS /KRAS [1, 5] | NRAS /KRAS [2, 6] | HRAS /KRAS [1, 7] | NRAS /KRAS [2, 8]
1 | CCC[C@H]1C(=O)N[C@@H]([C@@H](C)CC)C(=O)N2CCC[C@H]2C(=O)N(C)[C@H]2C/C=C\CCN(C2=O)[C@@H](Cc2ccc(C(F)F)cc2)C(=O)N(C)CC(=O)N[C@@H](CCc2ccc(Cl)c(Cl)c2)C(=O)N2C[C@H](OC3CCC3)C[C@H]2C(=O)NC2(CC(C)(C)C2)C(=O)N(C)[C@@H](C(CC)CC)C(=O)N(C)[C@H](C(=O)N(C)C)CC(=O)N1C [PP2646] | 1.6 | 92.6 | – | – | – | A (a compound having 10 or more and less than 20 is denoted as A) | AA (a compound having 20 or more is denoted as AA) | – | –
2 | CCO[C@@H]1C[C@H]2C(=O)NC3(CCC3)C(=O)N(C)[C@@H](C3CCCC3)C(=O)N(C)[C@H](C(=O)N(C)C)CC(=O)N(C)[C@@H](Cc3ccc(Cl)c(Cl)c3)C(=O)N[C@@H]([C@@H](C)CC)C(=O)N(C)CC(=O)N(C)[C@H]3CCCCCN(C3=O)[C@@H](Cc3ccc(F)cc3)C(=O)N(C)CC(=O)N[C@@H](CCc3cc(F)c(C(F)(F)F)c(F)c3)C(=O)N2C1 [PP1158] | – | – | – | 0.18 | 57.5 | – | – | B (a compound having 3 or more and less than 10 is denoted as B) | B (a compound having 3 or more and less than 10 is denoted as B)
3 | CCc1cc(CC[C@@H]2NC(=O)CN(C)C(=O)[C@H](Cc3ccc(C(F)F)cc3)N3CC/C=C\C[C@@H](C3=O)N(C)C(=O)CN(C)C(=O)[C@H]([C@@H](C)OC)NC(=O)[C@H](CC)N(C)C(=O)C[C@@H](C(=O)N(C)C)N(C)C(=O)[C@H](C(CC)CC)N(C)C(=O)C3(CCC3)N(C)C(=O)[C@@H]3C[C@@H](OC(C)C)CN3C2=O)ccc1C(F)(F)F [PP3500] | – | 12.2 | 0.31 | – | – | A (a compound having 10 or more and less than 20 is denoted as A) | A (a compound having 10 or more and less than 20 is denoted as A) | – | –
4 | C=C(C)C[C@H]1C(=O)N(C)[C@H](C(=O)N(C)C)CC(=O)N(C)[C@@H](CC(C)C)C(=O)N[C@@H]([C@@H](C)CC)C(=O)N2CCC[C@H]2C(=O)N(C)[C@H]2C/C=C\CCN(C2=O)[C@@H](Cc2ccc(C)cc2)C(=O)N(C)CC(=O)N[C@@H](CCc2cc(F)c(C(F)(F)F)c(F)c2)C(=O)N2C[C@H](OCC)C[C@H]2C(=O)N(C)C2(CCC2)C(=O)N1C [PP3351] | – | 34.7 | 4.2 | – | – | A (a compound having 10 or more and less than 20 is denoted as A) | A (a compound having 10 or more and less than 20 is denoted as A) | – | –
5 | CCCO[C@@H]1C[C@H]2C(=O)NC3(CC(C)(C)C3)C(=O)N(C)[C@@H](C3CCCC3)C(=O)N(C)[C@H](C(=O)N(C)CC)CC(=O)N(C)[C@@H](COCC)C(=O)N[C@@H]([C@@H](C)CC)C(=O)N(C3CC3)CC(=O)N(C)[C@H]3C/C=C\CCN(C3=O)[C@@H](Cc3ccc(C)cc3)C(=O)N(C)CC(=O)N[C@@H](CCc3cc(F)c(C(F)(F)F)c(F)c3)C(=O)N2C1 [PP3458] | – | 28.8 | 0.82 | – | – | A (a compound having 10 or more and less than 20 is denoted as A) | A (a compound having 10 or more and less than 20 is denoted as A) | – | –
6 | CCCOC[C@H]1C(=O)N[C@@H]([C@@H](C)CC)C(=O)N(C)CC(=O)N(C)[C@H]2C/C=C\CCN(C2=O)[C@@H](Cc2ccc(C)cc2)C(=O)N(C)CC(=O)N[C@@H](CCc2ccc(C(F)(F)F)c(OC)c2)C(=O)N2C[C@H](OCC)C[C@H]2C(=O)NC2(CC(C)(C)C2)C(=O)N(C)[C@@H](C2CCCC2)C(=O)N(C)[C@H](C(=O)N(C)C)CC(=O)N1C [PP2449] | 0.061 | 7.8 | – | – | – | A (a compound having 10 or more and less than 20 is denoted as A) | A (a compound having 10 or more and less than 20 is denoted as A) | – | –

Further lines, with some results ahead:

Row | Kd ([3]; 1:1 binding model) [nM] | IC50 ([4]; NCI-H441 cells, 4 days) [nM] | Kd ([3]; Single Cycle Kinetics) [nM] | Kd [3, 9] [nM] | IC50 [4, 10] [nM] | SMILES | HRAS /KRAS [1, 5] | NRAS /KRAS [2, 6] | HRAS /KRAS [1, 7] | NRAS /KRAS [2, 8]
7 | 0.13 | 17.2 | – | – | – | CCOC[C@H]1C(=O)N[C@@H]([C@@H](C)CC)C(=O)N(C)CC(=O)N(C)[C@H]2C/C=C\CCN(C2=O)[C@@H](Cc2ccc(C)cc2)C(=O)N(C)CC(=O)N[C@@H](CCc2ccc(C(F)(F)F)c(OC)c2)C(=O)N2C[C@@H](C)C[C@H]2C(=O)NC2(CC(C)(C)C2)C(=O)N(C)[C@@H](C2CCCC2)C(=O)N(C)[C@H](C(=O)N(C)C)CC(=O)N1C [PP2505] | B (a compound having 3 or more and less than 10 is denoted as B) | A (a compound having 10 or more and less than 20 is denoted as A) | – | –
8 | – | 12.6 | 0.61 | – | – | C=CCN1CC(=O)N(C)[C@H]2C/C=C\CCN(C2=O)[C@@H](Cc2ccc(C(F)F)cc2)C(=O)N(C)CC(=O)N[C@@H](CCc2cc(F)c(C(F)(F)F)c(F)c2)C(=O)N2C[C@H](OC(C)C)C[C@H]2C(=O)N(C)C2(CCC2)C(=O)N(C)[C@@H](C(CC)CC)C(=O)N(C)[C@H](C(=O)N(C)C)CC(=O)N(C)[C@@H](COCCC)C(=O)N[C@@H]([C@@H](C)OCCC)C1=O [PP3486] | A (a compound having 10 or more and less than 20 is denoted as A) | A (a compound having 10 or more and less than 20 is denoted as A) | – | –
9 | – | 12.4 | 0.28 | – | – | CCCN(C)C(=O)[C@@H]1CC(=O)N(C)[C@@H](CC(C)C)C(=O)N[C@@H]([C@@H](C)CC)C(=O)N(C)CC(=O)N(C)[C@H]2C/C=C\CCN(C2=O)[C@@H](Cc2ccc(C(F)(F)F)cc2)C(=O)N(C)CC(=O)N[C@@H](CCc2cc(F)c(C(F)(F)F)c(F)c2)C(=O)N2C[C@H](OCC)C[C@H]2C(=O)N[C@]2(C[C@@H](OC)C2)C(=O)N(C)[C@@H](C2CCCC2)C(=O)N1C [PP3352] | B (a compound having 3 or more and less than 10 is denoted as B) | A (a compound having 10 or more and less than 20 is denoted as A) | – | –
10 | – | 71.7 | 1.4 | – | – | CCO[C@@H]1C[C@H]2C(=O)NC3(CC(C)(C)C3)C(=O)N(C)[C@@H](C3CCCC3)C(=O)N(C)[C@H](C(=O)N(C)CC)CC(=O)N(C)[C@@H]([C@H](C)OC)C(=O)N[C@@H]([C@@H](C)CC)C(=O)N3CCC[C@H]3C(=O)N(C)[C@H]3C/C=C\CCN(C3=O)[C@@H](Cc3ccc(C(F)(F)F)cc3)C(=O)N(C)CC(=O)N[C@@H](CCc3ccc(C(F)(F)F)c(OC)c3)C(=O)N2C1 [PP3222] | A (a compound having 10 or more and less than 20 is denoted as A) | A (a compound having 10 or more and less than 20 is denoted as A) | – | –
11 | – | 1.4 | 0.079 | – | – | CCC[C@H]1C(=O)N[C@@H]([C@@H](C)CC)C(=O)N(C)CC(=O)N(C)[C@H]2C/C=C\CCN(C2=O)[C@@H](Cc2ccc(C)cc2)C(=O)N(C)CC(=O)N[C@@H](CCc2ccc(C(F)(F)F)c(OC)c2)C(=O)N2CC3(CC3)C[C@H]2C(=O)N(C)C2(CCC2)C(=O)N(C)[C@@H](CC(C)(C)C)C(=O)N(C)[C@H](C(=O)N(C)C)CC(=O)N1C [PP3296] | C (A compound having a KD ratio of 0.1 or more and less than 3 is denoted as C) | B (a compound having 3 or more and less than 10 is denoted as B) | – | –
12 | – | – | – | 1.1 | 178 | CCO[C@@H]1C[C@H]2C(=O)NC3(CCCC3)C(=O)N(C)[C@@H](C(CC)CC)C(=O)N(C)[C@H](C(=O)N3CCCC3)CC(=O)N(C)[C@@H](C)C(=O)N[C@@H]([C@@H](C)CC)C(=O)N(C)CC(=O)N(C)[C@H]3C/C=C\CCN(C3=O)[C@@H](CC3CCCCC3)C(=O)N(C)CC(=O)N[C@@H](CCc3cc(F)c(C(F)(F)F)c(F)c3)C(=O)N2C1 [PP1435] | – | – | A (a compound having 10 or more and less than 20 is denoted as A) | A (a compound having 10 or more and less than 20 is denoted as A)
